Assay in all cases: ≥ marks a high value that may be exact or a test limit, other limits are often not marked, values filed in µg/mL are converted to µM
Assay [1] deals with Bacillus anthracis Sterne 34F2.
Assay [2] concerns Bacillus subtilis ATCC 9372.
Assay [3] concerns Burkholderia thailandensis.
The subject of assay [4] is Escherichia coli BL21AI.
Assay [5] concerns Micrococcus luteus ATCC 10240.
In assay [6] the test system is Candida albicans C627.
Assay [7] deals with Enterococcus faecium mic80.
The test system of assay [8] is Escherichia coli ESBL 63103.
The test system of assay [9] is Pseudomonas aeruginosa 213.
Assay [10] concerns Pseudomonas aeruginosa H103.
The subject of assay [11] is Pseudomonas aeruginosa LES400.
The test system of assay [12] is Staphylococcus aureus ATCC 25923.
The subject of assay [13] is Staphylococcus aureus C623.
Assay [14] concerns Mycobacterium tuberculosis H37Rv.
Assay [15] deals with Escherichia coli ATCC 25922.
Assay [16] concerns Escherichia coli.
Assay [17] deals with Salmonella enterica subsp. enterica serovar Enteritidis.
In assay [18] the test system is Salmonella sp.
In assay [19] the test system is Staphylococcus aureus ATCC 29213.
Assay [20] relates to Staphylococcus aureus ATCC 43300.
The subject of assay [21] is Yersinia enterocolitica.
The test system of assay [22] is Candida albicans MDM8.
Assay [23] concerns Escherichia coli SBS 363.
Assay [24] concerns Micrococcus luteus A270.

Converted amounts (≈) assume the structure as drawn.

On to `CC[C@H](C)[C@H](NC(=O)CNC(=O)[C@H](CO)NC(=O)[C@H](CC(C)C)NC(=O)[C@@H](NC(=O)[C@H](CCCN=C(N)N)NC(=O)CNC(=O)[C@@H](NC(=O)[C@H](CC(C)C)NC(=O)[C@@H]1CCCN1C(=O)[C@H](CC(C)C)NC(=O)[C@@H](N)Cc1ccccc1)[C@@H](C)CC)C(C)C)C(=O)N[C@@H](CC(C)C)C(=O)O` [FLPLIGRVLSGIL], for which the MIC in [1] is ≥ 100 µM; in assay [2], ≥ 100 µM; in assay [3], ≥ 50 µM.

As for `CC[C@H](C)[C@H](NC(=O)[C@H](Cc1ccc(O)cc1)NC(=O)[C@@H](NC(=O)[C@@H]1CCCN1C(=O)[C@H](CCCN=C(N)N)NC(=O)[C@H](CC(N)=O)NC(=O)[C@H](CC(N)=O)NC(=O)CN)C(C)C)C(=O)N1CCC[C@H]1C(=O)N[C@@H](CCC(N)=O)C(=O)N1CCC[C@H]1C(=O)N[C@@H](CCCN=C(N)N)C(=O)N1CCC[C@H]1C(=O)N1CCC[C@H]1C(=O)N[C@@H](Cc1cnc[nH]1)C(=O)N1CCC[C@H]1C(=O)N[C@@H](C)C(=O)N[C@@H](CC(C)C)C(N)=O` [GNNRPVYIPQPRPPHPAL], the MIC in [4] and in assay [5] was ≥ 61.8 µM throughout.

With `CC[C@H](C)[C@H](N)C(=O)N[C@@H](CCCCN)C(=O)N[C@@H](CCCCN)C(=O)N[C@@H](CCCN=C(N)N)C(=O)N[C@@H](Cc1c[nH]c2ccccc12)C(=O)N[C@@H](Cc1c[nH]c2ccccc12)C(=O)N[C@@H](Cc1c[nH]c2ccccc12)C(=O)N[C@@H](Cc1ccccc1)C(=O)N[C@@H](CCCN=C(N)N)C(=O)O` [IKKRWWWFR], the minimal inhibitory concentration (MIC) is ≥ 91.1 µM in [6]; ≥ 45.5 µM in assay [7]; ≥ 45.5 µM in assay [8]; ≥ 91.1 µM in assay [9]; ≥ 91.1 µM in assay [10]; ≥ 91.1 µM in [11]. The minimum inhibitory concentration (MIC) in assay [12] and in [13] was 22.8 µM (≈ 32 µg/mL) each time.

As for `CC[C@H](C)[C@H](NC(=O)[C@H](CCCCN)NC(=O)[C@H](C)NC(=O)CNC(=O)[C@@H](NC(=O)[C@H](CCCCN)NC(=O)[C@@H](NC(=O)[C@H](CCCCN)NC(=O)[C@H](C)NC(=O)CNC(=O)[C@@H](NC(=O)[C@H](CCCCN)NC(=O)[C@@H](NC(=O)[C@H](CCCCN)NC(=O)[C@H](C)NC(=O)CNC(=O)[C@@H](NC(=O)[C@@H](N)CCCCN)[C@@H](C)CC)[C@@H](C)CC)[C@@H](C)CC)[C@@H](C)CC)[C@@H](C)CC)C(=O)O` [KIGAKIKIGAKIKIGAKI], the results for the minimal inhibitory concentration (MIC) in [1], in assay [2] and in assay [3] were ≥ 100 µM, 31 µM (≈ 57.4 µg/mL) and ≥ 50 µM, respectively.

On to `CC[C@H](C)[C@H](NC(=O)[C@H](Cc1ccc(O)cc1)NC(=O)CNC(=O)[C@@H](NC(=O)[C@@H](NC(=O)CNC(=O)[C@@H](NC(=O)[C@H](C)NC(=O)[C@H](C)NC(=O)CNC(=O)CNC(=O)[C@@H](N)CC(C)C)[C@@H](C)O)C(C)C)[C@@H](C)CC)C(=O)N[C@@H](CO)C(=O)N[C@@H](CC(N)=O)C(=O)N[C@@H](CCC(N)=O)C(=O)N[C@H](C(=O)N[C@@H](CS)C(=O)N1CCC[C@H]1C(=O)N[C@H](C(=O)N[C@H](C(=O)N[C@@H](C)C(=O)N[C@@H](CS)C(=O)N[C@H](C(=O)N[C@@H](CCCN=C(N)N)C(=O)N[C@@H](C)C(=O)N[C@@H](CS)C(=O)O)[C@@H](C)O)[C@@H](C)O)[C@@H](C)O)[C@@H](C)O` [LGGAATGVIGYISNQTCPTTACTRAC], for which the minimal inhibitory concentration (MIC) in [1] was ≥ 100 µM; in [2], ≥ 100 µM; in [3], ≥ 50 µM.

In the case of `CC[C@H](C)[C@H](NC(=O)[C@H](CC(N)=O)NC(=O)[C@H](C)NC(=O)[C@H](CCCN=C(N)N)NC(=O)[C@H](Cc1ccccc1)NC(=O)[C@H](CCC(=O)O)NC(=O)[C@H](Cc1ccccc1)NC(=O)[C@H](Cc1ccc(O)cc1)NC(=O)[C@H](Cc1ccccc1)NC(=O)CNC(=O)[C@@H]1CCCN1C(=O)[C@@H]1CCCN1C(=O)[C@@H](N)CCCN=C(N)N)C(=O)N[C@H](C(=O)N1CCC[C@H]1C(=O)N[C@@H](Cc1ccc(O)cc1)C(=O)N[C@@H](CC(C)C)C(=O)NCC(=O)N[C@@H](CCCN=C(N)N)C(=O)N[C@@H](CCCN=C(N)N)C(=O)O)[C@@H](C)CC` [RPPGFYFEFRANIIPYLGRR], the minimum inhibitory concentration (MIC) in [14] is ≥ 60.7 µM.

`CC[C@H](C)[C@H](NC(=O)[C@H](CCC(N)=O)NC(=O)[C@@H](N)CCCN=C(N)N)C(=O)N[C@@H](CCCN=C(N)N)C(=O)N[C@@H](CCCN=C(N)N)C(=O)N[C@H](C(=O)N[C@H](C(=O)N[C@@H](CCC(N)=O)C(=O)N[C@@H](CCCN=C(N)N)C(N)=O)[C@@H](C)CC)[C@@H](C)CC` [RQIRRIIQR]: the MIC is > 40.4 µM in assay [15]; > 40.4 µM in [16]; ≥ 40.4 µM in assay [17]; ≥ 40.4 µM in assay [18]; > 40.4 µM in assay [19]; > 40.4 µM in assay [20]. Also, the MIC in [21] was ≥ 40.4 µM.

On to `CC[C@H](C)[C@H](NC(=O)[C@H](CCC(N)=O)NC(=O)[C@@H](N)CCCN=C(N)N)C(=O)N[C@@H](CCCN=C(N)N)C(=O)N[C@@H](CCCN=C(N)N)C(=O)N[C@@H](Cc1c[nH]c2ccccc12)C(=O)N[C@@H](Cc1c[nH]c2ccccc12)C(=O)N[C@@H](CCSC)C(=O)N[C@@H](CCCN=C(N)N)C(N)=O` [RQIRRWWMR], for which the MIC in [15] was > 36 µM; in [16], > 36 µM; in assay [17] it was ≥ 36 µM; in assay [18] it was ≥ 36 µM; in assay [19], > 36 µM; in assay [20], > 36 µM. The MIC in [21] was ≥ 36 µM.

Turning to `CC(C)C[C@H](NC(=O)[C@H](Cc1c[nH]c2ccccc12)NC(=O)[C@H](CCCN=C(N)N)NC(=O)[C@H](Cc1c[nH]c2ccccc12)NC(=O)[C@H](Cc1c[nH]c2ccccc12)NC(=O)[C@H](CCCCN)NC(=O)[C@H](CCCCN)NC(=O)[C@H](Cc1c[nH]c2ccccc12)NC(=O)[C@@H](N)CCCN=C(N)N)C(=O)O` [RWKKWWRWL], the MIC was 2.77 µM (≈ 4 µg/mL) in assay [6]; 11.1 µM (≈ 16 µg/mL) in [7]; 11.1 µM (≈ 16 µg/mL) in assay [8]; 11.1 µM (≈ 16 µg/mL) in assay [9]; 1.38 µM (≈ 2 µg/mL) in assay [10]; 11.1 µM (≈ 16 µg/mL) in assay [11]. Also, the MIC in [12] and in [13] was 2.77 µM (≈ 4 µg/mL) throughout.

Regarding `CC[C@H](C)[C@H](NC(=O)[C@H](CC(C)C)NC(=O)[C@H](CO)NC(=O)[C@H](CC(C)C)NC(=O)[C@H](Cc1ccccc1)NC(=O)[C@@H](N)CO)C(=O)N[C@@H](CCCN=C(N)N)C(=O)N[C@@H](CCCCN)C(=O)N[C@@H](CC(C)C)C(=O)N[C@H](C(=O)N[C@H](C(N)=O)[C@@H](C)O)[C@@H](C)CC` [SFLSLIRKLIT], the results for the MIC in assay [22], in assay [23] and in [24] were 0.78 µM (≈ 1.01 µg/mL), 1.56 µM (≈ 2.01 µg/mL) and 0.78 µM (≈ 1.01 µg/mL), respectively.

The values above are taken from DBAASP.
